Experimental findings from PubChem BioAssay (NCI) are described below.

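Each compound was tested at five concentrations against cells in 96-well plates for 48 hours. GI50 = concentration required for 50% inhibition of growth. TGI marks complete inhibition of growth.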

Test systems include HT29 colon; MCF7 breast; NCI-H23 lung; MDA-MB-231 breast; CAKI-1 renal; IGROV1 ovarian; OVCAR-8 ovarian; SNB-19 CNS; SF-539 CNS.
Common to all, as to test: growth of human tumour cells (NCI), 48 h

As to `COc1ccc(C(=O)c2cc(OC)c(OC)c(OC)c2OC)cc1O`, the GI50 with HT29 colon was 3.8 µM; with MCF7 breast, 3.83 µM; with NCI-H23 lung, 3.71 µM; in the assay on MDA-MB-231 breast it was 5.82 µM; in the assay on CAKI-1 renal it was 2.21 µM; in the assay with IGROV1 ovarian, 7.5 µM. Also, the values for the GI50 in the assay on OVCAR-8 ovarian, with SNB-19 CNS and in the assay with SF-539 CNS were 4.06 µM, 4.49 µM and 3.05 µM, respectively. For the same compound, the TGI with HT29 colon is above 100 µM; with MCF7 breast it was above 100 µM; in the assay with NCI-H23 lung it was above 100 µM; with MDA-MB-231 breast it was above 100 µM; in the assay with CAKI-1 renal, 6.28 µM; in the assay with IGROV1 ovarian, above 100 µM. In addition, the values for the TGI in the assay with OVCAR-8 ovarian, in the assay on SNB-19 CNS and in the assay on SF-539 CNS were above 100 µM, above 100 µM and 8.96 µM, respectively.

In the case of `O=C1NC(=O)c2c1n(Cc1ccccc1)c(=O)n2Cc1ccccc1`, the TGI with HT29 colon, in the assay with NCI-H23 lung, with CAKI-1 renal, with IGROV1 ovarian, in the assay on OVCAR-8 ovarian and with SNB-19 CNS was above 100 µM each time. Besides, the TGI in the assay on SF-539 CNS was above 100 µM.

Take `O=[N+]([O-])c1ccccc1C1SCc2nc3ccccc3n21` (centres undefined): the TGI in the assay with HT29 colon, with NCI-H23 lung, in the assay on CAKI-1 renal, in the assay on IGROV1 ovarian, in the assay with OVCAR-8 ovarian and with SNB-19 CNS was above 100 µM throughout. In the assay with SF-539 CNS, the TGI is above 100 µM.

With `COC(=O)C1C(=O)O[C@@H](c2ccc3c(c2)OCO3)C1C(=O)OC` (mixture of isomers), the TGI in the assay on HT29 colon, in the assay on NCI-H23 lung, in the assay on CAKI-1 renal, in the assay on IGROV1 ovarian, in the assay with OVCAR-8 ovarian and with SNB-19 CNS was above 100 µM in each case. The same compound showed a TGI in the assay with SF-539 CNS above 100 µM.

With `COc1nc2c(c(O)c(C)c(=O)n2OC2OCC(OC(C)=O)C(OC(C)=O)C2OC(C)=O)c(=O)n1C` (centres undefined), the TGI in the assay on HT29 colon, in the assay with NCI-H23 lung, in the assay on IGROV1 ovarian, in the assay on OVCAR-8 ovarian, with SNB-19 CNS and with SF-539 CNS was above 100 µM throughout.

Consider `CC(=O)O[C@H]1C(=O)[C@@]2(C)C([C@H](OC(=O)c3ccccc3)[C@]3(O)C[C@H](OC(=O)[C@H](O)[C@@H](NC(=O)c4ccccc4)c4ccccc4)C(C)=C1C3(C)C)[C@]1(OC(C)=O)CO[C@@H]1C[C@@H]2O` (some centres undefined), for which the GI50 with HT29 colon is below 0.005 µM; with MCF7 breast, below 0.005 µM; in the assay on NCI-H23 lung it was 0.0125 µM; in the assay with MDA-MB-231 breast it was 0.0343 µM; with IGROV1 ovarian, 0.41 µM; with OVCAR-8 ovarian it was 0.00804 µM. The GI50 with SNB-19 CNS was 0.0135 µM; with SF-539 CNS it was 0.00872 µM. Moreover, the TGI with MCF7 breast, with NCI-H23 lung, in the assay with MDA-MB-231 breast, with CAKI-1 renal, in the assay with IGROV1 ovarian and with OVCAR-8 ovarian was above 50 µM throughout. Also, the TGI in the assay with SNB-19 CNS and in the assay on SF-539 CNS was above 50 µM throughout.

With `NNC(=O)C(=O)N/N=C1/CCCC1C(=O)CCC(=O)Nc1ccc(Cl)cc1` (centres undefined), the TGI in the assay with HT29 colon, with NCI-H23 lung, in the assay with CAKI-1 renal, with IGROV1 ovarian, with OVCAR-8 ovarian and in the assay with SNB-19 CNS was above 100 µM in each case. The compound also registered a TGI in the assay on SF-539 CNS above 100 µM.

Consider `O=c1cc(O)cc2n1CCC2`, for which the TGI in the assay on HT29 colon, in the assay on CAKI-1 renal, in the assay on IGROV1 ovarian, with OVCAR-8 ovarian, with SNB-19 CNS and in the assay on SF-539 CNS was above 100 µM each time.

As to `O=C(NC12CC3CCC1CC(C3)C2)[C@@H]1CCCN1C(=O)OCc1ccccc1` (some centres undefined), the TGI with HT29 colon, with NCI-H23 lung, with IGROV1 ovarian, in the assay with OVCAR-8 ovarian, in the assay with SNB-19 CNS and in the assay on SF-539 CNS was above 100 µM throughout.

As for `CC1=N/C(=C\c2ccc(/C=C3/N=C(C)OC3=O)cc2)C(=O)O1`, the TGI in the assay with HT29 colon, with NCI-H23 lung, with CAKI-1 renal, in the assay with IGROV1 ovarian, with OVCAR-8 ovarian and with SNB-19 CNS was above 100 µM each time. In the assay with SF-539 CNS, this compound returned a TGI above 100 µM.

`O=C(NC1C(=O)NNC1c1cccc([N+](=O)[O-])c1)c1ccccc1` (centres undefined): the TGI in the assay with HT29 colon, in the assay with NCI-H23 lung, in the assay with IGROV1 ovarian, in the assay with OVCAR-8 ovarian and in the assay with SNB-19 CNS was above 100 µM throughout.

`COC(=O)CCC(NC(=S)N/N=C/c1cccs1)C(=O)OC` (centres undefined): the TGI in the assay with HT29 colon, in the assay with NCI-H23 lung, in the assay on IGROV1 ovarian, with OVCAR-8 ovarian, with SNB-19 CNS and in the assay on SF-539 CNS was above 100 µM in each case.

Take `COc1cc(Nc2cnc3ccc(C(F)(F)F)cc3n2)cc(OC)c1OC`: the TGI in the assay on HT29 colon, with NCI-H23 lung, in the assay with OVCAR-8 ovarian, in the assay on SNB-19 CNS and in the assay with SF-539 CNS was above 100 µM in each case.

For `O=c1/c(=C/c2ccccc2[N+](=O)[O-])sc2nnc(-c3cccnc3)n12`, the TGI was above 100 µM in the assay with HT29 colon; above 100 µM in the assay with NCI-H23 lung; 2.78 µM in the assay with CAKI-1 renal; above 100 µM in the assay with IGROV1 ovarian; above 100 µM in the assay with OVCAR-8 ovarian; 32.1 µM in the assay with SNB-19 CNS. The same compound returned a TGI in the assay on SF-539 CNS above 100 µM.

In the case of `CCOC(=O)c1nc(C)oc1C(F)(F)F`, the TGI in the assay on HT29 colon, in the assay with NCI-H23 lung, with CAKI-1 renal, in the assay on IGROV1 ovarian, in the assay on OVCAR-8 ovarian and with SNB-19 CNS was above 100 µM throughout. Also, the TGI in the assay on SF-539 CNS was above 100 µM.

With `CCc1ccccc1NC(=O)c1cccc([N+](=O)[O-])c1O`, the TGI in the assay on HT29 colon is above 100 µM; in the assay on NCI-H23 lung, 72.5 µM; with CAKI-1 renal, above 100 µM; in the assay on IGROV1 ovarian it was above 100 µM; in the assay with OVCAR-8 ovarian, above 100 µM; with SNB-19 CNS it was above 100 µM. In the assay on SF-539 CNS, this compound gave a TGI above 100 µM.
